Results as given in US10166267B1, “Multi-component formulations for the treatment of cognitive decline including Alzheimer's disease” (priority 2010, dated 2019).

Key:
primary chicken neurons = assay: MTT cell viability assay on primary chicken neurons, components applied for forty-eight hours; format: cell-based; conditions: for effect on cell viability: 48 h
Method: Further tests were conducted to assess the neuroprotective effects of a number of the components previously disclosed herein at various concentrations on primary chicken neurons, individually and in select combinations. The study components were applied to test specimens obtained on embryonic day 8 in vitro (“DIV8”) for a period of forty-eight hours, after which, the test specimens were evaluated in accordance with MTT assay to determine cell viability.
One day old fertilized eggs were stored under appropriate conditions until the start of breeding. On embryonic day zero, eggs were transferred to a breeding incubator and maintained under turning at 37.8° C. and 55% humidity until embryonic day eight.
All cell culture experiments were carried out under sterile conditions and all procedures were performed in a cell culture unit with special cell culture equipment. Glassware, forceps ad/or scissors were sterilized prior to experiments. Stock chemical solutions were obtained sterile, and final solution and culture medium were prepared fresh in a laminar airflow cabinet.
Neurons were prepared as follows. DIV8 embryos were transferred to plastic dish and decapitated. Bother hemispheres were removed, collected, and cleaned from any loose tissue. Hemispheres were then mechanically disassociated and 4.8×10^4 cells per well in a 96-well plate, and each well was seeded with 160 μL.
The cell culture medium for chicken telencephalon neurons consists of DMEM with 4.5 grams glucose, 5% Nu Serum, 0.01% gentamycin, and 2 mM L-glutamine. Cultures are maintained at 37° C., 95% humidity and 5% CO2.
The study component(s) and vehicle controls (“VC”) were applied to chicken neurons at DIVE for forty-eight hours. The viability of the chicken neurons at DIV10 were determined according to an MTT cell viability assay.
MTT Cell Viability Assay: The viability of the chicken neurons were determined by MTT assay using a plate reader at 570 nanometers as described in SOP MET004. The assay measures the mitochondrial dehydrogenase activity which reduces yellow MTT to dark blue formazan crystals. As the reaction is catalyzed only in living cells, the assay is used to determine cell viability. MTT is added to each well at a concentration of 0.5 milligrams per milliliter. After two hours, the MTT containing medium is aspirated. Cells are lysed in 3% SDS and the formazan crystals are dissolved in isopropanol/hydrochloric acid. Optical density is measured with a plate-reader at a wavelength of 570 nanometers.
Cell survival rate is expressed as optical density, and values are calculated as a percentage of the vehicle control values, the vehicle control being 100%.

[1] = cited from earlier work

C[S+](C)[O-] [DMSO, Dimethyl sulfoxide]
effect on cell viability (primary chicken neurons; DMSO 5%, vs vehicle treated cells): toxic effects
effect on cell viability (primary chicken neurons; DMSO, all other concentrations tested, vs vehicle treated cells): minor negative effect on cell viability
DMSO converted to MSM in the body [1]: approximately 15%

COc1cc(/C=C/C(=O)CC(=O)/C=C/c2ccc(O)c(OC)c2)ccc1O [Curcumin, curcumin]
protective effects, curcumin alone vs in combination with MSM/FDP (primary chicken neurons; Part 3, curcumin applied alone): protective effects only in combinations with MSM/FDP but not when applied alone
effect on cell viability (primary chicken neurons; curcumin 50, 20, 10 and 5 μM, vs vehicle): negative effects on cell viability
effect on cell viability (primary chicken neurons; curcumin lowest concentration 0.01 μM, vs vehicle): positive influence on cell viability

Oc1ccc(C=Cc2cc(O)cc(O)c2)cc1 [Resveratrol, resveratrol]
effect on cell viability (primary chicken neurons; resveratrol 20, 10 and 5 μM, vs vehicle): positive effects on cell viability
effect on cell viability (primary chicken neurons; resveratrol 50 and 100 μM, vs vehicle): toxic to cells
cell viability compared to resveratrol (20 μM) plus DMSO/FDP (primary chicken neurons; resveratrol alone 20 μM): even better effects on cell viability

O=C(COP(=O)(O)O)[C@@H](O)[C@H](O)[C@H](O)COP(=O)(O)O [FDP, Fructose 1,6-diphosphate]
effect on cell viability (primary chicken neurons; FDP highest concentrations 50, 10 and 5 mM): toxic effects
effect on cell viability (primary chicken neurons; FDP, other applied concentrations): no significant effects

CS(C)(=O)=O [MSM, Methylsulfonylmethane]
concentration of MSM relative to DMSO achieving the same effects on cell viability (primary chicken neurons; MSM 0.1 μM vs DMSO 12.8 μM in combinations): 128 times less concentrated
effects on cell viability in the combinations, MSM vs DMSO (primary chicken neurons; MSM 0.0001 mM = 0.1 μM vs DMSO 12.8 μM = 0.0001%): same effects on cell viability
effect on cell viability (primary chicken neurons; MSM highest concentration 50 mM): minor negative effect
tolerance by cells when applied alone (primary chicken neurons; MSM vs DMSO, each applied alone): tolerated MSM better than DMSO
effect on cell viability (primary chicken neurons; MSM, all other applied concentrations, increase seen at 1 and 0.01 mM): no or even a slight increase in cell viability
